Test results as given in ChEMBL document CHEMBL1141035, “Synthesis and antidepressant activity of some 1,3,5-triphenyl-2-pyrazolines and 3-(2''-hydroxy naphthalen-1''-yl)-1,5-diphenyl-2-pyrazolines” (2005).
Several values for one entry are separate records, joined by “and”; a condition that tells them apart may be missing. Identical values can stand only once.

How the values were obtained:
Mus musculus [1] = assay: Antidepressant activity determined by percentage change from control after intraperitoneal administration at 100 mg/kg in mice; n = 6; type: functional
Mus musculus [2] = assay: Antidepressant activity determined by duration of immobility after intraperitoneal administration at 100 mg/kg in mice; type: functional

Row | SMILES | Activity (Mus musculus [1]) | Activity (Mus musculus [2]) | Activity (Mus musculus [2]; 100 mg/kg)
1 | COc1cc(C2CC(c3c(O)ccc4ccccc34)=NN2c2ccccc2)cc(OC)c1OC (stereo unspecified) | -12.53% | 49.26 s | 
2 | CN(C)CCCN1c2ccccc2CCc2ccc(Cl)cc21 [CLOMIPRAMINE] |  |  | 33.81 s and 18.68 s
3 | CN(C)c1ccc(C2CC(c3ccc(Br)cc3)=NN2c2ccccc2)cc1 (stereo unspecified) | -25.63% | 41.88 s | 
4 | Oc1ccc2ccccc2c1C1=NN(c2ccccc2)C(c2ccc(Br)cc2)C1 (stereo unspecified) | -54.1% | 25.4 s | 
5 | Oc1ccc2ccccc2c1C1=NN(c2ccccc2)C(c2ccc(Cl)cc2)C1 (stereo unspecified) | -17.82% | 46.28 s | 
6 | Oc1ccc(C2=NN(c3ccccc3)C(c3cccc(Br)c3)C2)cc1 (stereo unspecified) | -42.18% | 32.46 s | 
7 | Cc1ccc(C2=NN(c3ccccc3)C(c3ccc(N(C)C)cc3)C2)cc1 (stereo unspecified) | -10.95% | 50.15 s | 
8 | COc1ccc(C2CC(c3c(O)ccc4ccccc34)=NN2c2ccccc2)cc1 (stereo unspecified) | -9.83% | 50.78 s | 
9 | CN(C)c1ccc(C2CC(c3ccccc3)=NN2c2ccccc2)cc1 (stereo unspecified) | -59.25% | 22.95 s | 
10 | CN(C)c1ccc(C2CC(c3ccccc3O)=NN2c2ccccc2)cc1 (stereo unspecified) | -36.34% | 35.85 s | 
11 | Oc1ccc2ccccc2c1C1=NN(c2ccccc2)C(c2ccccc2)C1 (stereo unspecified) | -10.63% | 50.33 s | 
